The text below walks through data of article PMC3510438, “The transmembrane tyrosines Y56, Y91 and Y167 play important roles in determining the affinity and transport rate of the rabbit proton-coupled peptide transporter PepT1” (The International Journal of Biochemistry & Cell Biology, 2009).

Residue numbers refer to the chain shown, from its start. Where a SMILES comes first, the peptide text is derived from it. [ ]: non-standard residue; d: D form. Sar = CNCC(=O)O

One experiment concerns the target T1, wild-type rPepT1 (Oryctolagus cuniculus, UniProt P36836).
T1 construct: expressed in transfected cells; host or cells: Xenopus laevis oocytes injected with cRNA
T1 sequence (P36836 1-707): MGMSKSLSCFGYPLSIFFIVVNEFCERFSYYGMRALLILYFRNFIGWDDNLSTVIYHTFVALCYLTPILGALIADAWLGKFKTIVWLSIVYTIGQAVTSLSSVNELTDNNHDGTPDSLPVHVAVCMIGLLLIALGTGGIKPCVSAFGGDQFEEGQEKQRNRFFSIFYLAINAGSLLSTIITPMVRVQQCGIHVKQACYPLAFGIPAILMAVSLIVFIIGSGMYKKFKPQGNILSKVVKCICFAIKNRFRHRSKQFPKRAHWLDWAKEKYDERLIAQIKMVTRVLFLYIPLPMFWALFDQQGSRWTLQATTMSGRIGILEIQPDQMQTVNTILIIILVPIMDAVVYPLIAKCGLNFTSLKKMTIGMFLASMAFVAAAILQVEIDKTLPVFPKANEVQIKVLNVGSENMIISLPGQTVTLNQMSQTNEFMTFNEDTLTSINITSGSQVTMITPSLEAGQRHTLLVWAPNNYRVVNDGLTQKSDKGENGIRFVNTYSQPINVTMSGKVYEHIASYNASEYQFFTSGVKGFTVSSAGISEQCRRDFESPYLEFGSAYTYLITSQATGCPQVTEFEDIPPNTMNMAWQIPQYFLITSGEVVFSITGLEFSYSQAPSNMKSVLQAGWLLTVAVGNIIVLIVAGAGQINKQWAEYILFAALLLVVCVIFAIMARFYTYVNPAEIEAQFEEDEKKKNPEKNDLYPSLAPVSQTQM
In words: Competition of [3H]-D-Phe-L-Gln uptake into Xenopus oocytes, Ki by method of Deves and Boyd. Conditions: pHout 5.5; inhibition of 0.4 μM [3H]-D-Phe-L-Gln uptake; n = 4. Type of experiment: cell-based, rabbit. The method, then:
rPepT1 constructs were linearised with XbaI (New England Biolabs, UK) and cRNA generated by in vitro transcription (T7 mMessage mMachine, Ambion, Cambridgeshire, UK). Xenopus laevis oocytes were obtained under MS222 anaesthesia (0.2%, w/v) in accordance with the UK Animals (Scientific Procedures) Act, 1986, and maintained at 18 °C in modified Barth's medium (88 mM NaCl, 1 mM KCl, 0.82 mM MgSO4, 2.4 mM NaHCO3, 0.42 mM CaCl2, 10 mM Hepes, 5 mM sodium pyruvate, 50 μg ml^−1 gentamicin (Fluka, Poole, UK), adjusted to pH 7.6 with 1 M NaOH). Transport measurements were performed at least 72 h after micro-injection of oocytes with 27nl cRNA (1 μg/μl), with medium changed daily.
Uptake of [^3H]-D-Phe-L-Gln (17.4 Ci/mmole, custom synthesised, Cambridge Research Biochemicals, Stockton-on-Tees, UK) was performed as previously described ([Meredith, 2004]). Briefly, 5 oocytes were incubated in 100 μl of uptake medium (95 mM NaCl, 2 mM KCl, 1 mM CaCl2, 0.42 mM MgCl2, 10 mM Tris/Hepes pH 7.4 or Tris/Mes pH 5.5) with tracer (0.4 μM) [^3H]-D-Phe-L-Gln. After incubation, the oocytes were washed sequentially five times in 1 ml of ice-cold 120 mM NaCl solution, lysed individually with 100 μl 2% (w/v) SDS and liquid scintillation counted. As a control non-injected oocytes were also incubated in uptake medium with D-Phe-L-Gln as above.
The affinity of wild-type and mutant rPepT1 transporters were assessed by competition studies with 0.4 μM [^3H]-D-Phe-L-Gln and Gly-L-Gln present in the uptake medium in concentrations from 0 to 2 mM using the protocol above, and the Ki calculated using the method of [Deves and Boyd (1989)].

Experiment [1] has as its target T2, Y56F-rPepT1 (Oryctolagus cuniculus, UniProt P36836, Y56F).
T2 construct: expressed in transfected cells; host or cells: Xenopus laevis oocytes injected with cRNA
T2 sequence (P36836 1-707 Y56F): T1 sequence (P36836 1-707) with Y56F
The experiment is described as follows: Competition of [3H]-D-Phe-L-Gln uptake into Xenopus oocytes, Ki. It is filed as cell-based, rabbit. Conditions: pHout 5.5, n = 4; for Ki: inhibition of 0.4 μM [3H]-D-Phe-L-Gln uptake. The method, then:
rPepT1 constructs were linearised with XbaI (New England Biolabs, UK) and cRNA generated by in vitro transcription (T7 mMessage mMachine, Ambion, Cambridgeshire, UK).
As a control non-injected oocytes were also incubated in uptake medium with D-Phe-L-Gln as above.

The target of experiment [2] is T2, Y56F-rPepT1. Also noted: method as in Chen et al. (2000). Conditions: Y56F mutant versus wild-type; ref Chen et al. (2000); cited from earlier work.
Another experiment relates to Y56A mutation of PepT1. Also noted: method as in Chen et al. (2000). Conditions: ref Chen et al. (2000); cited from earlier work.
Experiment [3] deals with hPepT1 with mutations of Y167. Also on record: method as in Yeung et al., 1998. Conditions: transfected HEK293 cells; ref Yeung et al., 1998; cited from earlier work.

One may read the Ki as the equilibrium dissociation constant of an inhibitor or competing ligand from its target. Read a low Ki as tighter binding. Turning to `NC(=O)[C@H](Cc1ccc(O)cc1)NC(=O)[C@@H](N)Cc1ccccc1` [Phe-Tyr-NH2] (H-Phe-Tyr-NH2), the affinity at wild-type rPepT1, expressed as Ki, was 6600 ± 1620 µM. On Y56F-rPepT1 [1], the Ki came to 72.9 ± 20.5 µM and the “fold change in affinity (Ki), wild-type rPepT1 versus Y56F-rPepT1” value stood at 64.4 ± 26.0 fold.
With `NC(Cc1ccccc1)C(=O)NC(Cc1ccc(O)cc1)C(=O)O` (stereo not drawn) [Phe-Tyr] (H-Phe-Tyr-OH; configuration not given here), the Ki on wild-type rPepT1 was determined as 200 ± 30 µM. On Y56F-rPepT1 [1], the Ki stood at 0.86 ± 0.26 µM and the “fold change in affinity (Ki), wild-type rPepT1 versus Y56F-rPepT1” value came out at 336.4 ± 100.6 fold.
For `CC(C)C[C@H](NC(=O)CN)C(=O)O` [Gly-L-Leu], the reduction of transport result on Y56F-rPepT1 [2] was “approximately 85%”. In addition, the transport entry with Y56A mutation of PepT1 is reported as “lost completely”.
For the molecule `CN(CC(=O)O)C(=O)CN` [Gly-Sar] (H-Gly-[Sar]-OH), in experiment [3], the uptake result is recorded as “no measurable uptake”.
